The source of these data is patent publication US20110183978A1, “Phenylpyri(mi)dinylazoles” (Bayer CropScience AG, priority 2009, published 2011).

The test system of data set [1] is Alternaria solani. Briefly: Example M: in vivo test on Alternaria solani (leaf blotch disease/tomato/protective). The settings on record: 168 h, tomato, protective, 500 ppm active substance, assessed 7 days after inoculation, read-out: % Wirkungsgrad (activity level). As to the method:
Solvent: 49 parts by weight N,N-dimethylformamide Emulsifier: 1 part by weight alkylaryl polyglycol ethers For the preparation of a suitable active substance preparation, 1 part by weight of active substance is mixed with the stated quantities of solvent and emulsifier and the concentrate is diluted to the desired concentration with water. For the testing for protective activity, young tomato plants are sprayed with the active substance preparation at the stated application dosage. […] 7 days after the inoculation, the assessment takes place.

Data set [2] in a line: physchem.
Setting [3] is: LogPA (logP of the stated pure compound or, in a mixture, of the main isomer, 1-substituted 3-aryl-1H-pyrazole).

The structures appear in SMILES notation.

As for `CC(C)Cn1cc(-c2ccnc(NCC3CC3)n2)c(-c2ccc(F)cc2)n1` [Compound 273], the pest or weed control at 500 ppm in data set [1] amounted to 90%. In data set [2] (LogPA), this molecule returned a chromatographic logP of 2.55.
With `CC(C)n1cc(-c2ncnc3[nH]ccc23)c(-c2ccc(F)cc2)n1` [Compound 310], the pest or weed control at 500 ppm in data set [1] amounted to 95%. This molecule also returned a chromatographic logP in data set [2] (LogPA) of 1.61.
Consider `CCC(=O)Nc1cc(-c2cn(C(C)c3ccccc3F)nc2-c2ccc(F)cc2)ccn1` (stereo not drawn) [Compound 248], for which, in data set [1], the pest or weed control at 500 ppm is 94%. Moreover, in data set [2] (LogPA), the chromatographic logP is 3.03.
In the case of `CC(C)Nc1nccc(-c2cn(CC(F)F)nc2-c2ccc(F)cc2)n1` [Compound 364], the pest or weed control at 500 ppm in data set [1] turned out to be 95%. Further, the chromatographic logP in data set [2] (LogPA) worked out at 2.05.
For `CCC(=O)Nc1cc(-c2cn(Cc3cccc(C#N)c3)nc2-c2ccc(F)cc2)ccn1` [Compound 302], the pest or weed control at 500 ppm in data set [1] turned out to be 95%. Also, in data set [2] (LogPA), the chromatographic logP amounted to 2.38.
As to `COCC(=O)Nc1cc(-c2cn(C(C)c3ccccc3F)nc2-c2ccc(F)cc2)ccn1` (stereo not drawn) [Compound 244], the pest or weed control at 500 ppm in data set [1] stood at 94%. This molecule also registered a chromatographic logP in data set [2] (LogPA) of 3.5.
Regarding `Fc1ccc(-c2nn(Cc3ccccc3-c3ccccc3)cc2-c2ccncc2)cc1` [Compound 135], the pest or weed control at 500 ppm in data set [1] amounted to 78%. The chromatographic logP in data set [2] (setting [3]) worked out at 2.34.
For the molecule `N#Cc1cc(-c2c(-c3ccncc3)cnn2C2CCCCO2)ccc1F` (stereo not drawn) [Compound 61, 2-fluoro-5-[4-(pyridin-4-yl)-1-(tetrahydro-2H-pyran-2-yl)-1H-pyrazol-5-yl]benzonitrile], in data set [2] (setting [3]), the chromatographic logP stood at 1.45.
`Fc1ccc(-c2c(-c3ccncc3)cnn2C2CCCCO2)cc1Cl` (stereo not drawn) [Compound 51, 4-[5-(3-chloro-4-fluorophenyl)-1-(tetrahydro-2H-pyran-2-yl)-1H-pyrazol-4-yl]pyridine]: in data set [2] (setting [3]), the chromatographic logP turned out to be 1.57.
In the case of `CCn1ncc(Br)c1-c1ccc(F)cc1` [[VI-3], 4-Bromo-1-ethyl-5-(4-fluorophenyl)-1H-pyrazole], in data set [2] (pH 2.7, logP (pH 2.7)), the chromatographic logP worked out at 3.15.
The molecule `COCC(=O)Nc1cc(-c2cn(C3CCN(C(=O)OC(C)(C)C)CC3)nc2-c2ccc(F)cc2)ccn1` [Compound 204] displayed a chromatographic logP in data set [2] (LogPA) of 3.51.
`CC(C)n1ncc(-c2ccnc(N)c2)c1-c1ccc(F)cc1` [Compound 97]: the chromatographic logP in data set [2] (setting [3]) amounted to 1.25.
For `CC(C)(C)C(=O)Nc1cc(-c2cnn(C3CCCCO3)c2-c2cccc(C(F)(F)F)c2)ccn1` (stereo not drawn) [Compound 82], the chromatographic logP in data set [2] (setting [3]) came out at 3.84.
In data set [2] (pH 2.3, LogP (pH 2.3)), `N#Cc1cccc(-c2c(-c3ccncc3)cnn2C2CCCCO2)c1` (stereo not drawn) [[X-11], 3-[4-(pyridin-4-yl)-1-(tetrahydro-2H-pyran-2-yl)-1H-pyrazol-5-yl]benzonitrile] displayed a chromatographic logP of 1.23.
Consider `c1ccc(COc2ccccc2-c2c(-c3ccncc3)cnn2C2CCCCO2)cc1` (stereo not drawn) [Compound 98, 4-{5-[2-(benzyloxy)phenyl]-1-(tetrahydro-2H-pyran-2-yl)-1H-pyrazol-4-yl}pyridine], for which the chromatographic logP in data set [2] (setting [3]) came out at 1.64.
For the molecule `Fc1ccc(-c2nn(CC3OCCO3)cc2Br)cc1` [[VI-17], 4-Bromo-1-(1,3-dioxolan-2-ylmethyl)-3-(4-fluorophenyl)-1H-pyrazole], the chromatographic logP in data set [2] (pH 2.3, LogP (pH 2.3)) turned out to be 3.01; in data set [2] (pH 2.7, logP (pH 2.7)), 3.01.
In the case of `CC(C)n1cc(-c2ccnc3ccccc23)c(-c2ccc(F)cc2)n1` [[I-1], 4-[3-(4-Fluorophenyl)-1-isopropyl-1H-pyrazol-4-yl]quinoline], the chromatographic logP in data set [2] (pH 2.7, logP (pH 2.7)) is 2.23.
For `COc1ccc(-c2nn(C3CCCCO3)cc2-c2ccnc(C)n2)cc1` (stereo not drawn) [Compound 77], in data set [2] (setting [3]), the chromatographic logP came to 2.27.
In the case of `Fc1ccc(-c2nn(C3CC3)cc2Br)cc1` [[VI-26], 4-Bromo-1-cyclopropyl-3-(4-fluorophenyl)-1H-pyrazole], the chromatographic logP in data set [2] (pH 2.3, LogP (pH 2.3)) worked out at 3.59; in data set [2] (pH 2.7, logP (pH 2.7)) it was 3.59.
In data set [2] (pH 2.7, logP (pH 2.7)), `CC(C)Cn1ncc(Br)c1-c1ccc(F)cc1` [[VI-5], 4-Bromo-5-(4-fluorophenyl)-1-isobutyl-1H-pyrazole] displayed a chromatographic logP of 4.04.
Regarding `CC(C)On1cc(Br)c(-c2ccc(F)cc2)n1` [[VI-25], 4-Bromo-3-(4-fluorophenyl)-1-isopropoxy-1H-pyrazole], the chromatographic logP was determined as 4.11 in data set [2] (pH 2.3, LogP (pH 2.3)) and 4.11 in data set [2] (pH 2.7, logP (pH 2.7)).
As for `CC(C)C(=O)Nc1nccc(-c2cn(C(C)C)nc2-c2ccc(F)cc2)n1` [Compound 355], the chromatographic logP in data set [2] (LogPA) worked out at 2.55.
`O=C(Nc1ccccc1)c1cc(-c2cn(C3CCCCO3)nc2-c2cccc(Cl)c2)ccn1` (stereo not drawn) [Compound 96]: the chromatographic logP in data set [2] (setting [3]) is 4.89.
`CC(C)Cn1cc(B2OC(C)(C)C(C)(C)O2)c(-c2ccc(F)cc2)n1` [[V-3], 3-(4-Fluorophenyl)-1-isobutyl-4-(4,4,5,5-tetramethyl-1,3,2-dioxaborolan-2-yl)-1H-pyrazole]: the chromatographic logP in data set [2] (pH 2.3, LogP (pH 2.3)) came to 4.89; in data set [2] (pH 2.7, logP (pH 2.7)), 4.76.
On to `CCC(C)n1cc(-c2ccnc(NC(C)C)n2)c(-c2ccc(F)cc2)n1` (stereo not drawn) [Compound 360], for which, in data set [2] (LogPA), the chromatographic logP amounted to 2.41.
In the case of `COCCn1cc(Br)c(-c2ccc(F)cc2)n1` [[VI-6], 4-Bromo-3-(4-fluorophenyl)-1-(2-methoxyethyl)-1H-pyrazole], the chromatographic logP in data set [2] (pH 2.3, LogP (pH 2.3)) is 3.08; in data set [2] (pH 2.7, logP (pH 2.7)) it was 3.08.
Molecule `CCC(=O)Nc1cc(-c2c(-c3ccc(Cl)cc3F)nn(C)c2C(F)(F)F)ccn1` [Compound 197] yielded a chromatographic logP in data set [2] (LogPA) of 3.32.
Molecule `NS(=O)(=O)c1ccc(-c2c(-c3ccncc3)cnn2C2CCCCO2)cc1` (stereo not drawn) [[X-23], 4-[4-(pyridin-4-yl)-1-(tetrahydro-2H-pyran-2-yl)-1H-pyrazol-5-yl]benzenesulphonamide] had a chromatographic logP in data set [2] (pH 2.3, LogP (pH 2.3)) of 0.92.
As for `CC1(C)OB(c2ccnc(NC(=O)C3CC3)c2)OC1(C)C` [[XV-a-7], N-[4-(4,4,5,5-Tetramethyl-1,3,2-dioxaborolan-2-yl)pyridin-2-yl]cyclopropanecarboxamide], the chromatographic logP in data set [2] (pH 2.7, logP (pH 2.7)) was 0.
Consider `CC(C)Cn1cc(-c2ccnc(N3CCCC3=O)c2)c(-c2ccc(F)cc2)n1` [Compound 187], for which, in data set [2] (LogPA), the chromatographic logP was 3.19.
Turning to `Fc1ccc(-c2nn(Cc3ccccn3)cc2-c2ccncc2)cc1` [Compound 115], the chromatographic logP in data set [2] (setting [3]) worked out at 0.99.
On to `CN(C)C=C(C(=O)c1c(F)cccc1F)c1ccncc1` [[XXVI-1], 1-(2,6-Difluorophenyl)-3-(dimethylamino)-2-(pyridin-4-yl)prop-2-en-1-one], for which the chromatographic logP in data set [2] (pH 2.7, logP (pH 2.7)) came out at 0.6.
As for `Cn1cc(Br)c(-c2ccc(F)cc2)n1` [[V1-8], 4-Bromo-3-(4-fluorophenyl)-1-methyl-1H-pyrazole], the chromatographic logP in data set [2] (pH 2.7, logP (pH 2.7)) came to 2.86.
Consider `CC(C)Cn1cc(-c2ccnc3c2CC(=O)N3)c(-c2ccc(F)cc2)n1` [Compound 147], for which, in data set [2] (setting [3]), the chromatographic logP turned out to be 2.6.
Turning to `Fc1ccc(-c2c(-c3ccncc3)cnn2C2CCCCO2)c(F)c1` (stereo not drawn) [[X-8], 4-[5-(2,4-difluorophenyl)-1-(tetrahydro-2H-pyran-2-yl)-1H-pyrazol-4-yl]pyridine], the chromatographic logP in data set [2] (pH 2.3, LogP (pH 2.3)) worked out at 1.35.
Take `Fc1ccc(-c2n[nH]c(Br)c2-c2ccncc2)cc1` [[XXVIII-1], 4-[5-Bromo-3-(4-fluorophenyl)-1H-pyrazol-4-yl]pyridine]: the chromatographic logP in data set [2] (pH 2.7, logP (pH 2.7)) is 0.92.
For the molecule `COc1ccc(-c2c(-c3ccncc3)cnn2C2CCCCO2)c2ccccc12` (stereo not drawn) [Compound 45], the chromatographic logP in data set [2] (setting [3]) was 1.69.
As for `CC(C)n1cc(-c2ccnc(S(C)(=O)=O)n2)c(-c2ccc(F)cc2)n1` [[XLI-1], 4-[3-(4-Fluorophenyl)-1-isopropyl-1H-pyrazol-4-yl]-2-(methylsulphonyl)pyrimidine], the chromatographic logP in data set [2] (pH 2.7, logP (pH 2.7)) stood at 2.9.
`COCC(=O)Nc1cc(-c2c(-c3cc(F)c(C#N)cc3F)nn(C)c2OC(F)F)ccn1` [Compound 199] displayed a chromatographic logP in data set [2] (LogPA) of 2.59.
Regarding `Fc1ccc(-c2nn(-c3nnc(C(F)(F)F)s3)cc2-c2ccncc2)cc1` [Compound 111], the chromatographic logP in data set [2] (setting [3]) amounted to 2.9.
Regarding `CNC(=O)c1cc(-c2cn(C3CCCCO3)nc2-c2cccc(Cl)c2)ccn1` (stereo not drawn) [Compound 83], the chromatographic logP in data set [2] (setting [3]) is 3.15.
As to `N#CCCn1cc(Br)c(-c2ccc(F)cc2)n1` [[VI-23], 3-[4-bromo-3-(4-fluorophenyl)-1H-pyrazol-1-yl]propanonitrile], the chromatographic logP in data set [2] (pH 2.3, LogP (pH 2.3)) turned out to be 2.69; in data set [2] (pH 2.7, logP (pH 2.7)), 2.69.
On to `Clc1ccc(-c2c(-c3ccncc3)cnn2C2CCCCO2)cc1` (stereo not drawn) [[X-18], 4-[5-(4-chlorophenyl)-1-(tetrahydro-2H-pyran-2-yl)-1H-pyrazol-4-yl]pyridine], for which, in data set [2] (pH 2.3, LogP (pH 2.3)), the chromatographic logP was determined as 1.52.
Take `FC(F)(F)c1cccc(-c2nn(C3CCCCO3)cc2-c2cc(N3CCOCC3)ncn2)c1` (stereo not drawn) [Compound 36]: in data set [2] (setting [3]), the chromatographic logP is 2.1.
Molecule `Fc1ccc(-c2n[nH]cc2Br)cc1` [[VII-I], 4-Bromo-3-(4-fluorophenyl)-1H-pyrazole] gave a chromatographic logP in data set [2] (pH 2.7, logP (pH 2.7)) of 2.29.
Take `CC(C)Cn1cc(Br)c(-c2ccc(F)c(C#N)c2)n1` [[VI-11], 5-(4-Bromo-1-isobutyl-1H-pyrazol-3-yl)-2-fluorobenzonitrile]: the chromatographic logP turned out to be 4.15 in data set [2] (pH 2.3, LogP (pH 2.3)) and 4.15 in data set [2] (pH 2.7, logP (pH 2.7)).
Take `Cn1nc(-c2ccc(F)cc2)c(Br)c1OC(F)F` [[VI-b-1], 4-Bromo-5-(difluoromethoxy)-3-(4-fluorophenyl)-1-methyl-1H-pyrazole]: the chromatographic logP in data set [2] (pH 2.3, LogP (pH 2.3)) was determined as 3.52; in data set [2] (pH 2.7, logP (pH 2.7)) it was 3.52.
With `CCn1cc(-c2ccnc(NC(=O)Cc3ccccc3)c2)c(-c2ccc(F)cc2)n1` [Compound 190], the chromatographic logP in data set [2] (LogPA) came out at 2.72.
Consider `Fc1ccc(-c2c(-c3ccncc3)cnn2C2CCCCO2)cc1` (stereo not drawn) [[X-1], 4-[5-(4-Fluorophenyl)-1-(tetrahydro-2H-pyran-2-yl)-1H-pyrazol-4-yl]pyridine], for which the chromatographic logP is 1.23 in data set [2] (pH 2.3, LogP (pH 2.3)) and 1.23 in data set [2] (pH 2.7, logP (pH 2.7)).
For the molecule `Fc1ccc(-c2nn(Cc3ccc(F)c(Oc4ccccc4)c3)cc2-c2ccncc2)cc1` [Compound 139], the chromatographic logP in data set [2] (setting [3]) was found to be 2.4.

What is called chromatographic logP is lipophilicity estimated from chromatographic retention.
